Consider 25 compounds from ChEMBL document CHEMBL1140967, “Regiospecific microwave-assisted synthesis and cytotoxic activity against human breast cancer cells of (RS)-6-substituted-7- or 9-(2,3-dihydro-5H-1,4-benzodioxepin-3-yl)-7H- or -9H-purines” (Eur J Med Chem, 2008).

Assay [1] has as its system MCF7. As to the kind of experiment: Antiproliferative activity against human MCF7 cells after 6 days by SRB assay. The following applies: MCF7, 144 h.
The test system of assay [2] is MCF7. Nature of the assay: Cell cycle arrest in human MCF7 cells assessed as accumulation at G0/G1 phase at cytotoxic IC50 after 48 hrs by FACS assay. Type of assay: functional. For orientation: In flow cytometry, cells or beads pass a laser one at a time.
For assay [3], the system named is MCF7. Nature of the assay: Cell cycle arrest in human MCF7 cells assessed as accumulation at S phase at cytotoxic IC50 after 48 hrs by FACS assay. Format: functional.
In assay [4] the test system is MCF7. Nature of the assay: Cell cycle arrest in human MCF7 cells assessed as accumulation at G2/M phase at cytotoxic IC50 after 48 hrs by FACS assay. Format: functional.
Assay [5] concerns MCF7. As to the kind of experiment: Induction of apoptosis in human MCF7 cells at cytotoxic IC50 after 48 hrs by Annexin-V based assay. Type of assay: functional.

For orientation: IC50 means the concentration needed to halve the response being measured. Higher therefore signals lower potency. Compound `Clc1ccc(Sc2ncnc3c2ncn3C2COc3ccccc3CO2)c(Cl)c1` (racemic) displayed an IC50 in assay [1] of 12 µM.
As to `CSc1ncnc2[nH]cnc12`, inhibition in assay [1] was half-maximal at 23.6 µM (IC50).
For `c1ccc(Sc2ncnc3c2ncn3C2COc3ccccc3CO2)cc1` (racemic), the Activity in assay [2] came to 59.1%; in assay [3] it was 26.82%; in assay [4] it was 11.08%; in assay [5] it was 73.37%. Besides, the concentration for half-maximal inhibition (IC50) in assay [1] was 7.12 µM.
As to `CSc1ncnc2ncn(C3COc4ccccc4CO3)c12` (racemic), 31.8 µM corresponded to half-maximal inhibition in assay [1] (IC50).
On the same count and under the same terms, next, `c1ccc(Oc2ncnc3c2ncn3C2COc3ccccc3CO2)cc1` (racemic): 24.7 µM; `c1nc(OCC2CCCCC2)c2nc[nH]c2n1`: 32.3 µM.
Consider `Clc1ccc(Sc2ncnc3ncn(C4COc5ccccc5CO4)c23)c(Cl)c1` (racemic), for which the Activity in assay [2] stood at 58.1%; in assay [3], 22.73%; in assay [4], 19.16%; in assay [5], 65.28%. Besides, inhibition in assay [1] was half-maximal at 8.4 µM (IC50).
The compound `CC(=O)O[C@H]1C(=O)[C@@]2(C)[C@H]([C@H](OC(=O)c3ccccc3)[C@]3(O)C[C@H](OC(=O)[C@H](O)[C@@H](NC(=O)c4ccccc4)c4ccccc4)C(C)=C1C3(C)C)[C@]1(OC(C)=O)CO[C@@H]1C[C@@H]2O` [PACLITAXEL] gave an Activity in assay [5] of 43%.
In assay [1], `O=c1ccn(C2COc3ccccc3CO2)c(=O)[nH]1` (configuration not stated) came in with an IC50 of 5 µM.
On the same count and under the same terms, next, `c1ccc(Sc2ncnc3[nH]cnc23)cc1`: 31 µM; `Nc1nc(OCC2CCCCC2)c2nc[nH]c2n1`: 24.2 µM; `c1ccc(Oc2ncnc3ncn(C4COc5ccccc5CO4)c23)cc1` (racemic): 21.1 µM.
Compound `c1ccc2c(c1)COC(n1cnc3ncnc(OCC4CCCCC4)c31)CO2` (racemic) yielded an IC50 in assay [1] of 13.4 µM.
As to `C=CCOc1ncnc2c1ncn2C1COc2ccccc2CO1` (racemic), the Activity in assay [2] stood at 55.63%; in assay [3], 37%; in assay [4] it was 7.37%; in assay [5], 44.47%. The same compound registered an IC50 in assay [1] of 5.04 µM.
As for `Fc1ccc(Sc2ncnc3c2ncn3C2COc3ccccc3CO2)cc1` (racemic), inhibition in assay [1] was half-maximal at 11.2 µM (IC50).
In assay [1], `c1ccc(Oc2ncnc3[nH]cnc23)cc1` returned a half-maximal inhibitory concentration (IC50) of 28.4 µM.
Still for that read-out and setting: with `Clc1ccc(Sc2ncnc3[nH]cnc23)c(Cl)c1` the figure was 21.4 µM; with `C=CCOc1ncnc2[nH]cnc12`, 44.7 µM.
The compound `c1ccc(Sc2ncnc3ncn(C4COc5ccccc5CO4)c23)cc1` (racemic) came in with a 50% inhibitory concentration (IC50) in assay [1] of 15.6 µM.
Same read-out and setting: with `O=c1[nH]cc(F)c(=O)[nH]1` [FLUOROURACIL] the figure was 4.32 µM; with `Fc1ccc(Sc2ncnc3ncn(C4COc5ccccc5CO4)c23)cc1` (racemic), 14.1 µM.
In assay [1], `C=CCOc1ncnc2ncn(C3COc4ccccc4CO3)c12` (racemic) displayed a 50% inhibitory concentration (IC50) of 20.9 µM.
Take `c1ccc2c(c1)COC(n1cnc3c(OCC4CCCCC4)ncnc31)CO2` (racemic): the IC50 in assay [1] amounted to 11.6 µM.
`CSc1ncnc2c1ncn2C1COc2ccccc2CO1` (racemic) returned an IC50 in assay [1] of 24 µM.
In turn, `Fc1ccc(Sc2ncnc3[nH]cnc23)cc1` came in with a 50% inhibitory concentration (IC50) in assay [1] of 31.6 µM.
